Activity calls are given as the source filed them. No cut-off for these calls is given here.
Experiments:
HUVEC = assay: Antiangiogenic activity in HUVECs assessed as reduction in tube area at 2.5 nM incubated for 6 to 8 hrs by inverted microscopic analysis; format: functional, cell-based; conditions: Homo sapiens, time 6-8 hrs
[1] = target: T1, Protein cereblon/Tubulin beta-3 chain (Homo sapiens, UniProt Q13509+Q96SW2); assay: Protac activity at CRBN/beta3-tubulin in human A549 cells assessed as reduction in beta3-tubulin level at 0.01 to 1 uM incubated for 48 hrs by immunoblotting analysis; format: cell-based; conditions: dose 0.01-1 µM
T1 sequence (Q13509 whole entry, looked up): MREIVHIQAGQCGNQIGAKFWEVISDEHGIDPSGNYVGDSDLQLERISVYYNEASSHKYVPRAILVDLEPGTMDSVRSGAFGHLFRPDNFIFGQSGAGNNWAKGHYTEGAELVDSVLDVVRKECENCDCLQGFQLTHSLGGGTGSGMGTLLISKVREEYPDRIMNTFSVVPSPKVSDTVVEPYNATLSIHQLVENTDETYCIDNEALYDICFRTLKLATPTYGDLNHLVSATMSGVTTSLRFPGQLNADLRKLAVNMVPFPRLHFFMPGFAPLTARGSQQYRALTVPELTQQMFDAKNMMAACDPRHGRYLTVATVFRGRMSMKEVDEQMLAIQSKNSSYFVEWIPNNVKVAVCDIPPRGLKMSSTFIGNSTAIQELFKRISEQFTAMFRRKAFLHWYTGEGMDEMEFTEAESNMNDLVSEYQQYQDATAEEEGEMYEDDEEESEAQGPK
T1 sequence (Q96SW2 whole entry, looked up): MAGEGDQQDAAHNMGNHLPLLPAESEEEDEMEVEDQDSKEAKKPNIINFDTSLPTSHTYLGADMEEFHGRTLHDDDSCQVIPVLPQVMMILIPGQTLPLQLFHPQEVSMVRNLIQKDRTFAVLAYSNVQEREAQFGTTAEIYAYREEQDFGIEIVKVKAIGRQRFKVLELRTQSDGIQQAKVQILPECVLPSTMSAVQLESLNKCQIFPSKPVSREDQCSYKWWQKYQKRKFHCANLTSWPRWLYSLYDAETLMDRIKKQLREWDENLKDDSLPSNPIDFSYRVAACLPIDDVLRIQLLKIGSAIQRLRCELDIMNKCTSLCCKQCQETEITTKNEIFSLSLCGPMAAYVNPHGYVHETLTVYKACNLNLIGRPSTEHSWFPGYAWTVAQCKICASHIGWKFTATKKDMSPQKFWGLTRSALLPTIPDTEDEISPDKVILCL

[2] = target: T2, Protein cereblon-alpha tubulin (Homo sapiens) (UniProt P0DPH7+P68366+Q71U36+P68363+Q9BQE3+Q6PEY2+A6NHL2+Q9NY65+Q96SW2); assay: Protac activity at CRBN/alpha-tubulin in human A549/Taxol cells assessed as reduction in alpha-tubulin level at 0.25 uM pretreated with pomalidomide for 2 hrs followed by compound addition and measured after 48 hrs by immunoblotting analysis; format: cell-based
HepG2 [3] = assay: Induction of cell cycle arrest in human HepG2 cells assessed as G2/M phase arrest; format: functional, cell-based
[4] = target: T1, Protein cereblon/Tubulin beta-3 chain; assay: Protac activity at CRBN/beta3-tubulin in human MCF7 cells assessed as reduction in beta3-tubulin level at 10 to 1000 nM incubated for 48 hrs by immunoblotting analysis; format: cell-based; conditions: dose 10-1000 nM
A549 [5] = assay: Antitumor activity against human A549 cells xenografted in nude mouse assessed as decrease in tumor weight at 15 mg/kg, ip administered once every 2 days for 23 days by Vernier caliper method; format: functional, organism-based; conditions: time 23.0 day
[6] = target: T2, Protein cereblon-alpha tubulin (Homo sapiens); assay: Protac activity at CRBN/alpha-tubulin in human MCF7 cells assessed as reduction in alpha-tubulin level at 10 to 1000 nM incubated for 48 hrs by immunoblotting analysis; format: cell-based; conditions: dose 10-1000 nM
Tubulin (Homo sapiens) = Tubulin (Homo sapiens) (UniProt P68371+Q9H4B7+P0DPH7+P68366+Q13509+Q71U36+P04350+Q3ZCM7+P07437+P68363+Q9BQE3+Q6PEY2+Q13885+Q9BVA1+Q9BUF5); assay: Inhibition of microtubule polymerization in human HepG2 cells by immunofluorescence assay; format: cell-based
HeLa = assay: Antiproliferative activity against human HeLa cells incubated for 72 hrs; format: functional, cell-based
MCF7 [7] = assay: Antiproliferative activity against human MCF7 cells incubated for 72 hrs; format: functional, cell-based; conditions: MCF7, 72 h
[8] = target: T2, Protein cereblon-alpha tubulin (Homo sapiens); assay: Protac activity at CRBN/alpha-tubulin in human A549/Taxol cells assessed as reduction in alpha-tubulin level at 0.25 uM pretreated with CA-4 for 2 hrs followed by compound addition and measured after 48 hrs by immunoblotting analysis; format: cell-based
[9] = target: T3, Protein cereblon/Tubulin beta (Homo sapiens) (UniProt P68371+Q9H4B7+Q13509+P04350+Q3ZCM7+P07437+Q13885+Q9BVA1+Q9BUF5+Q96SW2+A6NNZ2); assay: Protac activity at CRBN/beta-tubulin in human MGC-803 cells assessed as reduction in beta-tubulin level at 10 to 1000 nM incubated for 48 hrs by immunoblotting analysis; format: cell-based; conditions: dose 10-1000 nM
HepG2 [10] = assay: Inhibition of DNA synthesis in human HepG2 cells; format: functional, cell-based
A549 [11] = assay: Induction of apoptosis in human A549 cells assessed as increase in apoptotic rate at 0.01 uM incubated for 48 hrs by Annexin V-FITC/PI staining based flow cytometry analysis (reference value: 1.3%); format: functional
[12] = target: T2, Protein cereblon-alpha tubulin (Homo sapiens); assay: Protac activity at CRBN/alpha-tubulin in human HepG2 cells assessed as reduction in alpha-tubulin level at 10 to 1000 nM incubated for 48 hrs by immunoblotting analysis; format: cell-based; conditions: dose 10-1000 nM
[13] = target: T3, Protein cereblon/Tubulin beta (Homo sapiens); assay: (§1) Protac activity at CRBN/beta-tubulin in human A549/Taxol cells assessed as reduction in beta-tubulin level incubated for 48 hrs by immunoblotting analysis; format: cell-based
[14] = target: Protein cereblon/Tubulin beta; assay: as §1; format: cell-based
A549 [15] = assay: Induction of cell cycle arrest in human A549 cells assessed as accumulation of cells at S phase at 0.05 uM incubated for 24 hrs by PI staining based flow cytometry analysis (reference value: 1.39%); format: functional
A549 [16] = assay: Induction of cell cycle arrest in human A549 cells assessed as accumulation of cells at G0/G1 phase at 0.01 uM incubated for 24 hrs by PI staining based flow cytometry analysis (reference value: 66.75%); format: functional
A549 [17] = assay: Antitumor activity against human A549 cells xenografted in nude mouse assessed as tumor growth inhibition at 15 mg/kg, […] administered once every 2 days for 23 days by Vernier caliper method; format: functional; conditions: A549, 552 h, time 23 day, read-out: TGI
A549/TR [18] = assay: Induction of cell cycle arrest in human A549/Taxol cells assessed as accumulation of cells at G2/M phase at 0.01 uM incubated for 24 hrs by PI staining based flow cytometry analysis (reference value: 17.02%); format: functional
[19] = Inhibition of cell growth in human MCF7/Taxol cells incubated for 72 hrs by SRB method; format: functional, cell-based
HepG2 [20] = assay: Antiproliferative activity against human HepG2 cells incubated for 72 hrs; format: functional, cell-based; conditions: HepG2, 72 h
A549 [21] = assay: Induction of apoptosis in human A549 cells assessed as increase in apoptotic rate at 0.002 uM incubated for 48 hrs by Annexin V-FITC/PI staining based flow cytometry analysis (reference value: 1.3%); format: functional
[22] = target: T3, Protein cereblon/Tubulin beta (Homo sapiens); assay: Protac activity at CRBN/beta-tubulin in human A549/Taxol cells assessed as reduction in beta-tubulin level at 0.25 uM pretreated with CA-4 for 2 hrs followed by compound addition and measured after 48 hrs by immunoblotting analysis; format: cell-based
[23] = target: T1, Protein cereblon/Tubulin beta-3 chain; assay: Protac activity at CRBN/beta3-tubulin in human A549 cells assessed as reduction in beta3-tubulin level at 0.25 uM pretreated with CA-4 for 2 hrs followed by compound addition and measured after 24 hrs by immunoblotting analysis; format: cell-based
[24] = target: T3, Protein cereblon/Tubulin beta (Homo sapiens); assay: Protac activity at CRBN/beta-tubulin in human A549 cells assessed as reduction in beta-tubulin level at 0.25 uM pretreated with CA-4 for 2 hrs followed by compound addition and measured after 24 hrs by immunoblotting analysis; format: cell-based
A549/TR [25] = assay: Induction of cell cycle arrest in human A549/Taxol cells assessed as accumulation of cells at G0/G1 phase at 0.002 uM incubated for 24 hrs by PI staining based flow cytometry analysis (reference value: 77.86%); format: functional
A549/TR [26] = assay: Inhibition of cell growth in human A549/Taxol cells incubated for 72 hrs by SRB method; format: functional, cell-based
A549/TR [27] = assay: Induction of apoptosis in human A549/Taxol cells at 0.05 uM incubated for 48 hrs by Annexin V-FITC/PI staining based flow cytometry analysis; format: functional
MCF7 [28] = assay: Inhibition of cell growth in human MCF7 cells incubated for 72 hrs by SRB method; format: functional, cell-based; conditions: MCF7, 72 h
A549/TR [29] = assay: Induction of cell cycle arrest in human A549/Taxol cells assessed as accumulation of cells at G2/M phase at 0.05 uM incubated for 24 hrs by PI staining based flow cytometry analysis (reference value: 17.02%); format: functional
[30] = target: T3, Protein cereblon/Tubulin beta (Homo sapiens); assay: Protac activity at CRBN/beta-tubulin in human A549/Taxol cells assessed as reduction in beta-tubulin level at 0.25 uM pretreated with pomalidomide for 2 hrs followed by compound addition and measured after 48 hrs by immunoblotting analysis; format: cell-based
[31] = target: T3, Protein cereblon/Tubulin beta (Homo sapiens); assay: Protac activity at CRBN/beta-tubulin in human A549 cells assessed as reduction in beta-tubulin level at 0.25 uM pretreated with MG-132 followed by compound addition and measured after 24 hrs by immunoblotting analysis; format: cell-based

Activity [1]: Active
Activity [2]: inactive
Activity [4]: Active
Activity [6]: Active
inhibition (Tubulin (Homo sapiens)): Active
IC50 (HeLa): 21 nM
IC50 (MCF7 [7]): 12 nM
Activity [8]: inactive
Activity [9]: Active
Activity [12]: Active
Activity [13]: Dose-Dependent Effect
DC50 [14]: 972 nM
IC50 (HepG2 [20]): 4 nM
Activity [22]: inactive
Activity [23]: inactive
Activity [24]: inactive
IC50 (A549/TR [26]): 5 nM
IC50 (MCF7 [28]): 12 nM
Activity [30]: inactive
Activity [31]: inactive
Compound: COc1ccc(/C=C\c2cc(OC)c(OC)c(OC)c2)cc1OC(=O)CCCNc1cccc2c1C(=O)N(C1CCC(=O)NC1=O)C2=O (stereo not given)
Activity (HUVEC): Active
Activity (HepG2 [3]): Active
Activity (A549 [5]): Active
inhibition (HepG2 [10]): Dose-Dependent Effect
Activity (A549 [11]): 23.1%
Activity (A549 [15]): 16.44%
Activity (A549 [16]): 16.29%
inhibition in vivo at 15 mg/kg (A549 [17]): 34.1%
Activity (A549/TR [18]): 63.83%
IC50 [19]: 6 nM
Activity (A549 [21]): 7.23%
Activity (A549/TR [25]): 67.61%
inhibition (A549/TR [26]): Dose-Dependent Effect
Activity (A549/TR [27]): 36.2%
Activity (A549/TR [29]): 66.57%

Reference: ChEMBL document CHEMBL5518186, “Discovery of the cereblon-recruiting tubulin PROTACs effective in overcoming Taxol resistance in vitro and in vivo” (Eur J Med Chem, 2024)
